In PubChem BioAssay AID1918949 (Molecular Pharmacology Branch, DTP, NCI, 2023):
Where “and” joins values, the source holds several entries; their conditions need not be identical. Equal values may be shown once.

Test system: K24384-001-R-PDC complex spheroid viability
Assay: Anticancer human tumor K24384-001-R-PDC patient-derived pancreatic adenocarcinoma cell line growth inhibition
Conditions: for viability, T/C: stronger effect = lower value
How it was run: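 Multicellular complex spheroids of tumor cells with human endothelial cells (HUVEC) and mesenchymal stem cells; the LSD1 inhibitor iadademstat was combined with standard-of-care or investigational agents. Top concentration at or near clinical Cmax, half-log dilutions; final DMSO ≤0.25%.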

[1] = curve of first compound, second compound 0.1 µM
[2] = curve of first compound, second compound 0.316 µM
[3] = curve of first compound, second compound 1 µM
[4] = curve of first compound, second compound 3.16 µM
[5] = curve of first compound, second compound 10 µM
[6] = second compound 0.1 µM, first compound 0.00316 µM
[7] = second compound 0.1 µM, first compound 0.01 µM
[8] = second compound 0.1 µM, first compound 0.0316 µM
[9] = second compound 0.1 µM, first compound 0.1 µM
[10] = second compound 0.1 µM, first compound 0.316 µM
[11] = second compound 0.1 µM, first compound 1 µM
[12] = second compound 0.316 µM, first compound 0.00316 µM
[13] = second compound 0.316 µM, first compound 0.01 µM
[14] = second compound 0.316 µM, first compound 0.0316 µM
[15] = second compound 0.316 µM, first compound 0.1 µM
[16] = second compound 0.316 µM, first compound 0.316 µM
[17] = second compound 0.316 µM, first compound 1 µM
[18] = second compound 1 µM, first compound 0.00316 µM
[19] = second compound 1 µM, first compound 0.01 µM
[20] = second compound 1 µM, first compound 0.0316 µM
[21] = second compound 1 µM, first compound 0.1 µM
[22] = second compound 1 µM, first compound 0.316 µM
[23] = second compound 1 µM, first compound 1 µM
[24] = second compound 3.16 µM, first compound 0.00316 µM
[25] = second compound 3.16 µM, first compound 0.01 µM
[26] = second compound 3.16 µM, first compound 0.0316 µM
[27] = second compound 3.16 µM, first compound 0.1 µM
[28] = second compound 3.16 µM, first compound 0.316 µM
[29] = second compound 3.16 µM, first compound 1 µM
[30] = second compound 10 µM, first compound 0.00316 µM
[31] = second compound 10 µM, first compound 0.01 µM
[32] = second compound 10 µM, first compound 0.0316 µM
[33] = second compound 10 µM, first compound 0.1 µM
[34] = second compound 10 µM, first compound 0.316 µM
[35] = second compound 10 µM, first compound 1 µM
[36] = second compound 0.1 µM, first compound 0.00949 µM
[37] = second compound 0.1 µM, first compound 0.03 µM
[38] = second compound 0.1 µM, first compound 0.0949 µM
[39] = second compound 0.1 µM, first compound 0.3 µM
[40] = second compound 0.1 µM, first compound 0.949 µM
[41] = second compound 0.1 µM, first compound 3 µM
[42] = second compound 0.316 µM, first compound 0.00949 µM
[43] = second compound 0.316 µM, first compound 0.03 µM
[44] = second compound 0.316 µM, first compound 0.0949 µM
[45] = second compound 0.316 µM, first compound 0.3 µM
[46] = second compound 0.316 µM, first compound 0.949 µM
[47] = second compound 0.316 µM, first compound 3 µM
[48] = second compound 1 µM, first compound 0.00949 µM
[49] = second compound 1 µM, first compound 0.03 µM
[50] = second compound 1 µM, first compound 0.0949 µM
[51] = second compound 1 µM, first compound 0.3 µM
[52] = second compound 1 µM, first compound 0.949 µM
[53] = second compound 1 µM, first compound 3 µM
[54] = second compound 3.16 µM, first compound 0.00949 µM
[55] = second compound 3.16 µM, first compound 0.03 µM
[56] = second compound 3.16 µM, first compound 0.0949 µM
[57] = second compound 3.16 µM, first compound 0.3 µM
[58] = second compound 3.16 µM, first compound 0.949 µM
[59] = second compound 3.16 µM, first compound 3 µM
[60] = second compound 10 µM, first compound 0.00949 µM
[61] = second compound 10 µM, first compound 0.03 µM
[62] = second compound 10 µM, first compound 0.0949 µM
[63] = second compound 10 µM, first compound 0.3 µM
[64] = second compound 10 µM, first compound 0.949 µM
[65] = second compound 10 µM, first compound 3 µM
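Note: spheroids exposed to agents for seven days before luminescence viability reading.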
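Throughout, for viability, T/C: 100% = DMSO vehicle control viability.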

Work on COc1cc(Nc2ncc3c(n2)-c2ccc(Cl)cc2C(c2c(F)cccc2OC)=NC3)ccc1C(=O)O + NC1CC1c1ccc(-c2cccc(O)c2)cc1 yielded an IC50 [1] of over 1000 nM, an IC50 [2] of over 1000 nM and an IC50 [3] of 48.3 nM. The IC50 [4] was 34.1 nM, the IC50 [5] was 25.1 nM and the viability, T/C [6] was 74.2%. It also gave a viability, T/C [7] of 72.7%, a viability, T/C [8] of 62.4% and a viability, T/C [9] of 57.3%. The viability, T/C [10] was 55.8%, the viability, T/C [11] was 60.3% and the viability, T/C [12] was 68%. For the same molecule, the viability, T/C [13] was 63.1%, the viability, T/C [14] was 51.9% and the viability, T/C [15] was 47.8%. For the same molecule, the viability, T/C [16] was 45.5%, the viability, T/C [17] was 58.9% and the viability, T/C [18] was 61.1%. It also gave a viability, T/C [19] of 62.5%, a viability, T/C [20] of 52.8% and a viability, T/C [21] of 43.7%. The viability, T/C [22] was 43.2%, the viability, T/C [23] was 48.9% and the viability, T/C [24] was 56.6%. It also gave a viability, T/C [25] of 64%, a viability, T/C [26] of 50.4% and a viability, T/C [27] of 39.6%. The viability, T/C [28] was 42.5%, the viability, T/C [29] was 49.8% and the viability, T/C [30] was 65.4%. The viability, T/C [31] was 62.4%, the viability, T/C [32] was 45.7% and the viability, T/C [33] was 44.6%. For the same molecule, the viability, T/C [34] was 42.4% and the viability, T/C [35] was 54.7%.

In the case of CC(C)CC(NC(=O)C(Cc1ccccc1)NC(=O)c1cnccn1)B(O)O (stereo unspecified), the viability, T/C (compound 0.000316 µM) is reported as 81.2% and 95.6%, the viability, T/C (compound 0.001 µM) is reported as 1.67% and 1.46% and the viability, T/C (compound 0.00316 µM) is reported as 0.39% and 0.47%. The viability, T/C (compound 0.01 µM) was 0.38%, the viability, T/C (compound 0.0316 µM) was 0.34% and 0.41% and the viability, T/C (compound 0.1 µM) was 0.36% and 0.35%. For the same molecule, the IC50 (curve of compound) was 0.497 nM and 0.552 nM.

Work on CC1COCCN1c1cc(-c2ccnn2C)c2ccnc(-c3ccn[nH]3)c2n1 (stereo unspecified) + NC1CC1c1ccc(-c2cccc(O)c2)cc1 yielded an IC50 [1] of 4.71 nM, an IC50 [2] of 326 nM and an IC50 [3] of 16.3 nM. It also gave an IC50 [4] of 10.4 nM, an IC50 [5] of 343 nM and a viability, T/C [6] of 51.2%. For the same molecule, the viability, T/C [7] was 51.4%, the viability, T/C [8] was 40.2% and the viability, T/C [9] was 44.7%. The viability, T/C [10] was 46.9%, the viability, T/C [11] was 38% and the viability, T/C [12] was 56.1%. For the same molecule, the viability, T/C [13] was 46.6%, the viability, T/C [14] was 51% and the viability, T/C [15] was 45.1%. It also gave a viability, T/C [16] of 53.5%, a viability, T/C [17] of 34% and a viability, T/C [18] of 53%. It also gave a viability, T/C [19] of 59.9%, a viability, T/C [20] of 40.9% and a viability, T/C [21] of 42.9%. The viability, T/C [22] was 43.8%, the viability, T/C [23] was 35.8% and the viability, T/C [24] was 56.5%. For the same molecule, the viability, T/C [25] was 52.3%, the viability, T/C [26] was 43.7% and the viability, T/C [27] was 39.7%. It also gave a viability, T/C [28] of 48.1%, a viability, T/C [29] of 37% and a viability, T/C [30] of 64.2%. The viability, T/C [31] was 60.1%, the viability, T/C [32] was 51.1% and the viability, T/C [33] was 59%. The viability, T/C [34] was 51.8% and the viability, T/C [35] was 31.7%.

In the case of O=C(C=Cc1cccc(S(=O)(=O)Nc2ccccc2)c1)NO + NC1CCC(NC2CC2c2ccccc2)CC1, the IC50 [1] is reported as 262 nM, the IC50 [2] is reported as 239 nM and the IC50 [3] is reported as 241 nM. For the same molecule, the IC50 [4] was 266 nM, the IC50 [5] was 192 nM and the viability, T/C [36] was 109%. The viability, T/C [37] was 112%, the viability, T/C [38] was 116% and the viability, T/C [39] was 41.7%. The viability, T/C [40] was 3.48%, the viability, T/C [41] was 0.14% and the viability, T/C [42] was 131%. It also gave a viability, T/C [43] of 107%, a viability, T/C [44] of 95.1% and a viability, T/C [45] of 39.4%. The viability, T/C [46] was 4.3%, the viability, T/C [47] was 0.15% and the viability, T/C [48] was 90.3%. The viability, T/C [49] was 121%, the viability, T/C [50] was 95.8% and the viability, T/C [51] was 39.1%. The viability, T/C [52] was 4.13%, the viability, T/C [53] was 0.15% and the viability, T/C [54] was 109%. The viability, T/C [55] was 129%, the viability, T/C [56] was 113% and the viability, T/C [57] was 42.5%. For the same molecule, the viability, T/C [58] was 4.22%, the viability, T/C [59] was 0.16% and the viability, T/C [60] was 107%. For the same molecule, the viability, T/C [61] was 118%, the viability, T/C [62] was 73% and the viability, T/C [63] was 35.7%. It also gave a viability, T/C [64] of 3.52% and a viability, T/C [65] of 0.24%.

For CC[C@@]1(O)C(=O)OCc2c1cc1n(c2=O)Cc2cc3c(CN(C)C)c(O)ccc3nc2-1, the viability, T/C (compound 0.000316 µM) was 107% and 94.3%, the viability, T/C (compound 0.001 µM) was 107% and 78.8% and the viability, T/C (compound 0.00316 µM) was 83.1% and 87.1%. The viability, T/C (compound 0.01 µM) was 73% and 57.5%, the viability, T/C (compound 0.0316 µM) was 61.3% and 49.8% and the viability, T/C (compound 0.1 µM) was 49.9% and 42.5%. The IC50 (curve of compound) was > 100 nM and 21.4 nM.

CCN(c1cc(-c2ccc(CN3CCOCC3)cc2)cc(C(=O)NCc2c(C)cc(C)[nH]c2=O)c1C)C1CCOCC1 + NC1CC1c1ccc(-c2cccc(O)c2)cc1 gave an IC50 [1] of over 3000 nM, an IC50 [2] of over 3000 nM and an IC50 [3] of over 3000 nM. It also gave an IC50 [4] of over 3000 nM, an IC50 [5] of over 3000 nM and a viability, T/C [36] of 113%. For the same molecule, the viability, T/C [37] was 115%, the viability, T/C [38] was 102% and the viability, T/C [39] was 103%. The viability, T/C [40] was 98.9%, the viability, T/C [41] was 62.8% and the viability, T/C [42] was 113%. It also gave a viability, T/C [43] of 104%, a viability, T/C [44] of 118% and a viability, T/C [45] of 103%. It also gave a viability, T/C [46] of 94.2%, a viability, T/C [47] of 71.8% and a viability, T/C [48] of 100%. The viability, T/C [49] was 112%, the viability, T/C [50] was 107% and the viability, T/C [51] was 95.8%. For the same molecule, the viability, T/C [52] was 96.7%, the viability, T/C [53] was 65.5% and the viability, T/C [54] was 109%. For the same molecule, the viability, T/C [55] was 126%, the viability, T/C [56] was 108% and the viability, T/C [57] was 111%. The viability, T/C [58] was 96.2%, the viability, T/C [59] was 69.7% and the viability, T/C [60] was 127%. It also gave a viability, T/C [61] of 132%, a viability, T/C [62] of 109% and a viability, T/C [63] of 127%. For the same molecule, the viability, T/C [64] was 104% and the viability, T/C [65] was 77.6%.

For Cn1ncnc1C1c2n[nH]c(=O)c3cc(F)cc(c23)NC1c1ccc(F)cc1 (stereo unspecified), the viability, T/C (compound 0.000316 µM) was 108% and 99.6%, the viability, T/C (compound 0.001 µM) was 105% and 115% and the viability, T/C (compound 0.00316 µM) was 87.1% and 102%. For the same molecule, the viability, T/C (compound 0.01 µM) was 93.5% and 95%, the viability, T/C (compound 0.0316 µM) was 90.6% and 95.1% and the viability, T/C (compound 0.1 µM) was 80.4% and 76.9%. The IC50 (curve of compound) was over 100 nM.
